# Assay results: patent US20260069599A1, “INHIBITORS OF BROMODOMAIN-CONTAINING PROTEIN 4 AND PHOSPHOINOSITIDE 3-KINASE” (Board of Regents of the University of Nebraska, priority 2022, published 2026)
# Legend:
# [1] = biological target: T1, BRD4-BD2 (Homo sapiens, UniProt O60885); assay: Protein Thermal Shift (PTS) assay on BRD4-BD2; format: binding; set-up: polyhistidine (N, cleaved yes); made in house; host or cells: E. coli (T7 express); settings: 100 μM ligand, 20 μM BD protein; thermal destabilization
# Experimental: The genes encoding human BRD2-BD1, BRD2-BD2, and BRD4-BD2 were codon-optimized for expression in E. coli. […] The sequence-confirmed plasmids were used to transform T7 express E coli. Large-scale cell cultures were grown in LB media containing […] carbenicillin and incubated with shaking at 37° C. until the OD600 nm reached 0.6. Then cultures were cooled to 16° C., and 1 mM isopropyl β-D-1-thiogalactopyranoside was added to induce the protein expression. After 20 hours of incubation, cells were harvested. The resulting cell pellet was resuspended in a lysis buffer containing 50 mM Tris pH 7.5, 200 mM NaCl, 0.5 mM imidazole, and 0.3 mM tris(2-carboxyethyl) phosphine (TECP). After the addition of DNase I and lysozyme, the cell suspension was incubated on ice for 30 minutes and lysed by sonication. The lysate was clarified by centrifugation at 12,000 rpm for 45 minutes. The resulting supernatant was applied to a 5 mL metal affinity cobalt column pre-equilibrated with lysis buffer. Then, 25 column volumes of lysis buffer were passed through the column to eliminate unbound E coli proteins. Recombinant protein was eluted isocratically with the elution buffer containing 50 mM Tris pH 7.5, 200 mM NaCl, 150 mM imidazole, and 0.3 mM TECP. The rhinovirus 3C protease was added to the eluted recombinant protein to cleave the N-terminal Histidine tag and the sample dialyzed against a buffer containing 50 mM Tris pH 7.5, 100 mM NaCl and 0.3 mM TECP. After 12 hours, the protein solution was passed through a 5 ml cobalt column, which was pre-equilibrated with dialysis buffer, and the recombinant protein lacking the His-tag was collected from the flowthrough.
# Each reaction used 20 μM concentration of recombinant BD protein in a 50 mM Tris pH 7.5 buffer containing 100 mM NaCl, 0.3 mM tris(2-carboxyethyl) phosphine HCl, and 1% dimethyl sulfoxide. Protein Thermal Shift Dye (ThermoFisher) was also added at 1× concentration. Under these conditions, 3 protein melting curves with each respective BD and 100 μM final concentration of ligand were performed from 25 to 95° C. with a ramp rate of 0.5° C./minute. Evaluation of the derivative of the fluorescence signal employed the Applied Bioscience Protein Thermal Shift Software version 1.3 to determine the average melting temperature (Tm) for each sample and the standard deviation(s) of those Tm values.
# [2] = biological target: T1, BRD4-BD2; set-up: tested against BRD4-BD1 and BRD4-BD2 using a peptide-displacement assay; settings: relative to SF2523; cited from earlier work
# [3] = biological target: T2, BRD4-BD1 (Homo sapiens, UniProt O60885); settings: relative to SF2523; cited from earlier work
# T2 construct: tested against BRD4-BD1 and BRD4-BD2 using a peptide-displacement assay
BRD4-BD2 Tm decrease [1] [°C],SMILES,better binding affinity than SF2523 for BRD4-BD2 [2] [fold],better binding affinity than SF2523 for BRD4-BD1 [3] [fold]
1.3,"O=c1c(N2CCOCC2)nc(Br)c2n1CCc1ccccc1-2 [MDP3, 1-bromo-3-morpholino-6,7-dihydro-4H-pyrazino [2,1-a]isoquinolin-4-one]",,
0.6,"O=c1cc(N2CCOCC2)oc2c(Br)cccc12 [MDP4, 8-bromo-2-morpholino-4H-chromen-4-one]",,
,O=C(NCc1cccnc1)c1cc(-c2csc3c(=O)cc(N4CCOCC4)oc23)cc2c1OCCO2 [SRX3212],48,65
